Where two headings read alike, the source gives them in different places.
Legend:
[1] = target: GDP-bound KRAS protein (aa 1-169), containing both G12C and C118A amino acid substitutions (Homo sapiens (Human), UniProt P01116, C118A/G12C); assay: Coupled nucleotide exchange assay (SOS-mediated nucleotide exchange, AlphaScreen); format: biochemical; details: 5 min compound pre-incubation; for IC50: read-out: Coupled exchange IC50 (5 min; μM)
[2] = system: Phosphorylation of ERK1/2 in A549 cells; assay: Phospho-ERK1/2 MSD assay in A549 cells; format: cell-based; details: read-out: p-ERK IC50 (2 h, A549; μM), 2 h compound treatment, A549 cells, EGF stimulated
Method in brief: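 Phospho-ERK1/2 was quantified by MSD immunoassay in RIPA lysates of MIA PaCa-2 or A549 cells. Before lysis, cells received 10 ng/mL EGF for 10 min after 2 or 4 h exposure at 37° C. to a compound concentration series.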

[3] = system: Phosphorylation of ERK1/2 in MIA PaCa-2 cells; assay: Phospho-ERK1/2 MSD assay in MIA PaCa-2 cells; format: cell-based; details: read-out: p-ERK IC50 (2 h, MiaPaCa-2; μM), 2 h compound treatment, MIA PaCa-2 cells, EGF stimulated
Method in brief: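 Phospho-ERK1/2 measured by MSD electrochemiluminescence kit in RIPA lysates of MIA PaCa-2 cells. Cells were treated with compound titrations for 2 or 4 h at 37 °C, 5% CO2, followed by a 10 min pulse of 10 ng/mL EGF.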

Chain of GDP-bound KRAS protein (aa 1-169), containing both G12C and C118A amino acid substitutions (P01116 other isoform, or with tags, fused parts or gaps G12C/C118A): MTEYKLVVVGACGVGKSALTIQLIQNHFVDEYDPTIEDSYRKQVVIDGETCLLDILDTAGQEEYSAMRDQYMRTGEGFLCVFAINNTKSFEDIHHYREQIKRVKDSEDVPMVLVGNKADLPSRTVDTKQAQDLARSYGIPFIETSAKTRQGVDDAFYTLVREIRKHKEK

Structure (SMILES)	IC50 [1] [µM]	IC50 ([2]; Homo sapiens, A549, 2 h) [µM]	IC50 ([3]; Homo sapiens, MIA PaCa-2, 2 h) [µM]	Coupled exchange IC50 (5 min; μM) [1] [µM]	IC50 [2] [µM]	IC50 [3] [µM]
C=CC(=O)N1CCN(c2nc(=O)n(-c3c(C(C)C)ccnc3C(C)C)c3nc(-c4ccccc4C)c(Cl)cc23)[C@@H](C)C1 (single isomer, unassigned) [Example 124-10]	0.046	> 7.5	0.049	–	–	–
C=CC(=O)N1C[C@H](C)N(c2nc(=O)n(-c3c(C(C)C)ncn(C)c3=O)c3nc(-c4ccccc4F)c(Cl)cc23)C[C@H]1C [Example 103-2, 6-Chloro-4-[(2S,5R)-2,5-dimethyl-4-prop-2-enoyl-piperazin-1-yl]-7-(2-fluorophenyl)-1-(4-isopropyl-1-methyl-6-oxo-pyrimidin-5-yl)pyrido[2,3-d]pyrimidin-2-one]	0.084	> 7.5	0.04	–	–	–
C=CC(=O)N1C[C@H](C)N(c2nc(=O)n(-c3c(C)ccnc3C(C)C)c3nc(C4CCC4)c(Cl)cc23)C[C@H]1C (atropisomer, axis not shown; (M)) [Example 95-5, (M)-6-chloro-7-cyclobutyl-4-[(2S,5R)-2,5-dimethyl-4-prop-2-enoyl-piperazin-1-yl]-1-(2-isopropyl-4-methyl-3-pyridyl)pyrido [2,3-d]pyrimidin-2-one]	0.304	> 7.5	0.611	–	–	–
C=CC(=O)N1C[C@H](C)N(c2nc(=O)n(-c3c(C)nc(C)nc3C(C)C)c3nc(-c4ccccc4F)c(Cl)cc23)C[C@H]1C [Example 193, 4-((2S,5R)-4-Acryloyl-2,5-dimethylpiperazin-1-yl)-6-chloro-7-(2-fluorophenyl)-1-(4-isopropyl-2,6-dimethylpyrimidin-5-yl)pyrido[2,3-d]pyrimidin-2(1H)-one]	0.056	> 7.5	0.055	–	–	–
C=CC(=O)N1C[C@H](C)N(c2nc(=O)n(-c3c(C)ccnc3C(C)C)c3nc(-c4cc(Br)ccc4F)c(Cl)cc23)C[C@H]1C (atropisomer, axis not shown; (M)) [Example 92-37, (M)-7-(5-Bromo-2-fluoro-phenyl)-6-chloro-4-[(2S,5R)-2,5-dimethyl-4-prop-2-enoyl-piperazin-1-yl]-1-(2-isopropyl-4-methyl-3-pyridyl)pyrido [2,3-d]pyrimidin-2-one]	0.048	> 7.5	0.06	–	–	–
[2H]C1([2H])CN(C(=O)C=C)CC([2H])([2H])N1c1nc(=O)n(-c2c(C)ccnc2C(C)C)c2nc(-c3c(O)cccc3F)c(F)cc12 (atropisomer, axis not shown; (M)) [Example 72-21, (M)-6-Fluoro-7-(2-fluoro-6-hydroxy-phenyl)-1-(2-isopropyl-4-methyl-3-pyridyl)-4-(2,2,6,6-tetradeuterio-4-prop-2-enoyl-piperazin-1-yl)pyrido[2,3-d]pyrimidin-2-one]	–	> 7.5	0.306	0.468	–	–
C=CC(=O)N1C[C@H](C)N(c2nc(=O)n(-c3c(C)nc(Cl)nc3C(C)C)c3nc(-c4ccccc4F)c(Cl)cc23)C[C@H]1C (single isomer, unassigned) [Example 191-2]	–	> 7.5	0.079	0.079	–	–
C=CC(=O)N1C[C@H](C)N(c2nc(=O)n(CC(C)(C)C)c3nc(-c4ccccc4F)c(Cl)cc23)C[C@H]1C [Example 110-1, 4-((2S,5R)-4-Acryloyl-2,5-dimethylpiperazin-1-yl)-6-chloro-7-(2-fluorophenyl)-1-neopentylpyrido[2,3-d]pyrimidin-2(1H)-one]	0.57	> 7.5	1.12	–	–	–
C=CC(=O)N1C[C@H](C)N(c2nc(=O)n(-c3c(N)ncnc3C(C)C)c3nc(-c4c(O)cccc4F)c(Cl)cc23)C[C@H]1C [Example 190, 4-((2S,5R)-4-Acryloyl-2,5-dimethylpiperazin-1-yl)-1-(4-amino-6-isopropylpyrimidin-5-yl)-6-chloro-7-(2-fluoro-6-hydroxyphenyl)pyrido[2,3-d]pyrimidin-2(1H)-one]	–	> 7.5	1.71	0.126	–	–
C=CC(=O)N1C[C@H](C)N(c2nc(=O)n(-c3c(N(C)C)ccnc3C(C)C)c3nc(-c4ccccc4F)c(Cl)cc23)C[C@H]1C (single isomer, unassigned) [Example 55-51-2]	0.07	–	–	–	> 7.5	0.037
C=CC(=O)N1CCN(c2nc(=O)n(CC(C)(C)OC)c3nc(-c4ccccc4F)c(Cl)cc23)CC1 [Example 106-5, 6-Chloro-7-(2-fluorophenyl)-1-(2-methoxy-2-methyl-propyl)-4-(4-prop-2-enoylpiperazin-1-yl)pyrido[2,3-d]pyrimidin-2-one]	6.13	> 7.5	1.46	–	–	–
C=CC(=O)N1C[C@H](C)N(c2nc(=O)n(-c3c(N(CC)CC)ccnc3C(C)C)c3nc(-c4ccccc4C(C)C)c(Cl)cc23)C[C@H]1C (single isomer, unassigned) [Example 103-6-2]	0.112	–	–	–	5.19	0.26
C=CC(=O)N1C[C@H](C)N(c2nc(=O)n(-c3c(C)ccnc3C(C)C)c3nc(-c4cc(Cl)ccc4F)c(Cl)cc23)C[C@H]1C (atropisomer, axis not shown; (M)) [Example 92-44, (M)-6-Chloro-7-(5-chloro-2-fluoro-phenyl)-4-[(2S,5R)-2,5-dimethyl-4-prop-2-enoyl-piperazin-1-yl]-1-(2-isopropyl-4-methyl-3-pyridyl)pyrido [2,3-d]pyrimidin-2-one]	0.04	> 7.5	0.098	–	–	–
C=CC(=O)N1C[C@H](C)N(c2nc(=O)n(-c3c(C(C)C)nc(C)nc3C(C)C)c3nc(-c4ccccc4F)c(Cl)cc23)C[C@H]1C [Example 167, 6-Chloro-1-(4,6-diisopropyl-2-methyl-pyrimidin-5-yl)-4-[(2S,5R)-2,5-dimethyl-4-prop-2-enoyl-piperazin-1-yl]-7-(2-fluorophenyl)pyrido[2,3-d]pyrimidin-2-one]	0.052	> 7.5	0.083	–	–	–
C=CC(=O)N1C[C@H](C)N(c2nc(=O)n(-c3c(CN4CCCC4)cccc3C(C)C)c3nc(-c4ccccc4F)c(Cl)cc23)C[C@H]1C (single isomer, unassigned) [Example 80-10-2]	0.053	–	–	–	> 7.5	0.04
C=CC(=O)N1C[C@H](C)N(c2nc(=O)n(-c3c(C4CC4)ccnc3C(C)C)c3nc(-c4ccccc4C)c(Cl)cc23)C[C@H]1C (single isomer, unassigned) [Example 124-9]	–	> 7.5	–	0.122	–	0.169
C=CC(=O)N1C[C@H](C)N(c2nc(=O)n(CC(C)(C)OC)c3nc(-c4ccccc4F)c(Cl)cc23)C[C@H]1C [Example 106-4, 6-Chloro-4-[(2S,5R)-2,5-dimethyl-4-prop-2-enoyl-piperazin-1-yl]-7-(2-fluorophenyl)-1-(2-methoxy-2-methyl-propyl)pyrido[2,3-d]pyrimidin-2-one]	5.04	> 7.5	2.45	–	–	–
C=CC(=O)N1C[C@H](C)N(c2nc(=O)n(-c3ccccc3C(C)C)c3nc(-c4ccccc4F)c(Cl)cc23)C[C@H]1C [Example 186, 4-((2S,5R)-4-Acryloyl-2,5-dimethylpiperazin-1-yl)-6-chloro-7-(2-fluorophenyl)-1-(2-isopropylphenyl)pyrido[2,3-d]pyrimidin-2(1H)-one]	0.093	> 7.5	0.199	–	–	–
C=CC(=O)N1C[C@H](C)N(c2nc(=O)n(-c3c(C)ccnc3C(C)C)c3nc(-c4cccc(F)c4OC)c(Cl)cc23)C[C@H]1C (atropisomer, axis not shown; (M)) [Example 92-62, (M)-6-Chloro-4-[(2S,5R)-2,5-dimethyl-4-prop-2-enoyl-piperazin-1-yl]-7-(3-fluoro-2-methoxy-phenyl)-1-(2-isopropyl-4-methyl-3-pyridyl)pyrido [2,3-d]pyrimidin-2-one]	0.01	> 7.5	0.075	–	–	–
C=CC(=O)N1C[C@H](C)N(c2nc(=O)n(-c3c(C)ccnc3C(C)C)c3nc(-c4ccc(F)cc4F)c(Cl)cc23)C[C@H]1C (atropisomer, axis not shown; (M)) [Example 92-61, (M)-6-Chloro-7-(2,4-difluorophenyl)-4-[(2S,5R)-2,5-dimethyl-4-prop-2-enoyl-piperazin-1-yl]-1-(2-isopropyl-4-methyl-3-pyridyl)pyrido [2,3-d]pyrimidin-2-one]	0.008	> 7.5	0.027	–	–	–
C=CC(=O)N1C[C@H](C)N(c2nc(=O)n(-c3c(CN4CCCC4)cccc3C(C)C)c3nc(-c4ccccc4F)c(Cl)cc23)C[C@H]1C [Example 80-10, 6-Chloro-4-[(2S,5R)-2,5-dimethyl-4-prop-2-enoyl-piperazin-1-yl]-7-(2-fluorophenyl)-1-[2-isopropyl-6-(pyrrolidin-1-ylmethyl)phenyl]pyrido[2,3-d]pyrimidin-2-one]	0.077	> 7.5	0.063	–	–	–
C=CC(=O)N1C[C@H](C)N(c2nc(=O)n(-c3c(N(C)C)ccnc3C(C)C)c3nc(-c4ccccc4C(C)C)c(Cl)cc23)C[C@H]1C (single isomer, unassigned) [Example 103-1-2]	0.053	–	–	–	> 7.5	0.039

— US11285156B2, “Substituted piperazines as KRAS G12C inhibitors” (Amgen Inc., priority 2018, dated 2022)
